Reference: patent US11083720B2, “Indazole inhibitors of fructokinase (KHK) and methods of use in treating KHK-mediated disorders or diseases” (REGENTS OF THE UNIVERSITY OF COLORADO, A BODY CORPORATE, priority 2017, dated 2021)
pIC50: −log10 of the molar value.

Each compound was assayed against KHK-C (Homo sapiens (Human), UniProt P50053) (assay: 3-step coupled-enzyme KHK assay (KHK, PK, LDH; NADH disappearance)). Settings: recombinant KHK-C, 1 mM fructose, A340 at 37° C.
Format: biochemical
Protocol: Specific high-throughput screening assays were developed for KHK-C and KHK-A using recombinant proteins. Purified human recombinant KHK-C and KHK-A were produced using the Bio-Rad Profinity eXact Fusion-Tag System and Profinia protein purification instrument. The assays consist of a 3-step, coupled-enzyme process involving fructokinase (KHK), pyruvate kinase (PK) and lactate dehydrogenase (LDH). ^1,2 The disappearance of NADH is measured kinetically by A340 at 37° C. The enzymatic assay was carried out in a total reaction volume of 200 ul containing 50 mM PIPES, 6 mM MgCl2, 100 mM KCl, 100 uM-5 mM ATP, 2 mM phosphoenolpyruvate, 0.3 mM NADH, 15 U of pyruvate kinase, 15 U of lactate dehydrogenase, and 75-1000 ng KHKC. 1 mM fructose was added to the reactions, except for the no fructose controls which utilized water. The high-throughput assay was used to identify inhibitors that have an IC50 value <5 μM for KHK-C.^5 The '559 pub also sets forth a KHK assay for testing inhibition activity of potential KHK inhibitors.

Chain of KHK-C (P50053 whole entry): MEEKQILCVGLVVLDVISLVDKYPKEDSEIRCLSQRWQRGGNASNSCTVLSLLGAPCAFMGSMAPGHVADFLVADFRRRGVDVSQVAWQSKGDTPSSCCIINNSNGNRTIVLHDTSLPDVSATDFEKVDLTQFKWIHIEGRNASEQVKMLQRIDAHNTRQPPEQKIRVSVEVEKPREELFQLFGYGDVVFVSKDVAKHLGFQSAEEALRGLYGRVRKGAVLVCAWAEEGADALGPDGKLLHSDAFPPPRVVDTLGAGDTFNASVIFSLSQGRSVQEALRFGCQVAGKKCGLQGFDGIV

pIC50 | SMILES
6.10 | Cc1cccc(-n2ncc3ccc(C(=O)NC4CCNCC4)cc32)c1 [Compound C-32, N-(piperidin-4-yl)-1-(m-tolyl)-1H-indazole-6-carboxamide]
5.64 | Cc1cccc(-n2ncc3ccc(C(=O)NC4CNC4)cc32)c1 [Compound C-33, N-(azetidin-3-yl)-1-(m-tolyl)-1H-indazole-6-carboxamide]
5.92 | Cc1cccc(-n2ncc3ccc(NC(=O)C4CCN4)cc32)c1 (stereo not shown) [Compound C-72]
6.29 | Cc1cccc(-n2ncc3ccc(NC(=O)C4CNC4)cc32)c1 [Compound C-25, N-(1-(m-tolyl)-1H-indazol-6-yl)azetidine-3-carboxamide]

Continued, compound first:

SMILES | pIC50
O=C(NC1CNC1)c1ccc2cnn(-c3ccccc3)c2c1 [Compound C-34, N-(azetidin-3-yl)-1-phenyl-1H-indazole-6-carboxamide] | 6.24
Cc1cccc(-n2ncc3ccc(-c4ccnc(N)c4)cc32)c1 [Compound C-5, 4-(1-(m-tolyl)-1H-indazol-6-yl)pyridin-2-amine] | 6.55
Nc1cc(-c2ccc3c(C4CC4)nn(-c4ccccc4)c3c2)ccn1 [Compound C-28, 4-(3-cyclopropyl-1-phenyl-1H-indazol-6-yl)pyridin-2-amine] | 6.15
O=C(NC1CCNCC1)c1ccc2cnn(-c3ccccc3)c2c1 [Compound C-26, 1-phenyl-N-(piperidin-4-yl)-1H-indazole-6-carboxamide] | 5.64

Same assay, conditions: recombinant KHK-C, 1 mM fructose, A340 at 37° C.; heading: IC50 Result

pIC50 | SMILES
5.93 | Nc1cc(-c2ccc3cnn(-c4ccccc4)c3c2)ccn1 [Compound C-1, 4-(1-phenyl-1H-indazol-6-yl)pyridin-2-amine]

Each compound was assayed on aldoB−/− KO mice (assay: Fructose-induced hypoglycemia in Aldolase B Knockout Mice). Settings: 25 mg/kg IP 30 min before and repeated at oral fructose gavage (1.5 g/kg), glucose over 90 minutes.
Format: in vivo
Description: Example 12 describes fructokinase inhibition results and fructose-induce hypoglycemia prevention results obtained from in vivo assay in Aldolase B Knockout Mice. Hereditary Fructose intolerance is a rare genetic disease due to deficiency of aldolase B that is associated with over activation of KHK-C. One of the key features in these individuals is the development of acute hypoglycemia following exposure to fructose ingestion due to rapid uptake of glucose into the liver with the formation of glycogen. Recently, an aldolase-B KO (aldoB^−/−) mouse that has the clinical features of HFI in humans was developed. These mice develop immediate dose-dependent hypoglycemia in response to fructose, but also develop fatty liver within days of low grade fructose feeding.
The procedure used in Example 12 consisted of first fasting animals for six hours, followed by the administration of fructose by oral gavage (45 mg fructose, equivalent to 1.5 g/kg body weight) or vehicle (water) to mice and following serum glucose levels over 90 minutes by measuring glucose with a glucometer from tail snip bleeds. With vehicle administration serum glucose stays normal, but when fructose is administered to aldolase B knockout mice a progressive fall in serum glucose occurs, as noted by the percent (%) of the baseline level. […]

SMILES | hypoglycemic response to fructose (serum glucose, % of baseline)
Cc1cccc(-n2ncc3ccc(NC(=O)C4CNC4)cc32)c1 [Compound C-25, N-(1-(m-tolyl)-1H-indazol-6-yl)azetidine-3-carboxamide] | hypoglycemic response was prevented
